Experimental data from US11702409B2, “Pyrazolyl derivatives useful as anti-cancer agents” (NOVARTIS AG, priority 2019, dated 2023).

These compounds were tested against KRasG12C (M1-K169, biotinylated on the N-terminus) (Homo sapiens (Human), UniProt P01116, G12C) (assay: Covalent competition assay (scintillation proximity assay, competition with radiolabeled covalent probe Compound B)). Details: in vitro KRASG12C activity; 10 nM KRasG12C:GDP, 25 nM radio-ligand and 475 nM unlabelled ligand, incubated 2 hours; read-out: Covalent Competition Assay IC50.
Assay type: binding
Method: The cells were lysed by 4 passages through an Avestin Emulsiflex at about 20000 psi and insoluble debris removed by centrifugation and filtered through a 0.45 μm Durapore membrane (Millipore). […] The protein in the flow through was subjected to a final polishing step on a HiLoad 16/60 Superdex 200 prep grade size-exclusion column pre-equilibrated with SEC-buffer (20 mM HEPES pH 7.4, 150 mM NaCl, 5 mM MgCl2, 1 μM GDP).
A scintillation proximity assay (SPA) was used to determine the potency of the compounds. This assay measures the ability of the test compound to compete with the radiolabeled covalent probe for binding to and covalently modify KRASG12C.
A serial dilution of the compounds to be tested is mixed with a fixed concentration of the radiolabeled covalent probe before incubation with KRASG12C:GDP as described below.
The reaction was started by addition of KRasG12C (M1-K169, biotinylated on the N-terminus) to the compounds and incubated for 2 hours with continuous agitation allowing for full modification of KRasG12C with probe or test compounds. […] The assay buffer contained 20 mM Tris-HCl pH 7.5 (Invitrogen), 150 mM NaCl (Sigma Aldrich), 0.1 mM MgCl2 (Sigma Aldrich), and 0.01% Tween-20 (Sigma Aldrich).
Evaluation was carried out using assay data analysis software (such as the standard Novartis in-house Helios software application, Novartis Institutes for BioMedical Research, unpublished) using the methods described in Formenko et al., Robust Regression for high-throughput screening.
Evaluation can also be carried out using commercially available software which is designed to derive IC50 values using 4-parameter fits (e.g. GraphPad Prism, XL fit).

IC50 [nM]	SMILES
251	C=CC(=O)N1CC2(CC(n3nc(-c4cccnc4)c(-c4c(Cl)c(C)cc5[nH]ncc45)c3C)C2)C1 (single isomer, unassigned) [Example 27a]
19900	C=CC(=O)N1CC2(CC(n3nc(-c4cccnc4)c(-c4c(Cl)c(C)cc5[nH]ncc45)c3C)C2)C1 (single isomer, unassigned) [Example 27b]
1280	C=CC(=O)N1CC2(CC(n3nc(-c4ccnc(C)c4)c(-c4c(Cl)ccc5[nH]ncc45)c3C)C2)C1 (single isomer, unassigned) [Example 28a]
> 50000	C=CC(=O)N1CC2(CC(n3nc(-c4ccnc(C)c4)c(-c4c(Cl)ccc5[nH]ncc45)c3C)C2)C1 (single isomer, unassigned) [Example 28b]
220	C=CC(=O)N1CC2(CC(n3nc(-c4cccc5c4cnn5C)c(-c4c(Cl)c(C)cc5[nH]ncc45)c3C)C2)C1 (single isomer, unassigned) [Example 29a]
15000	C=CC(=O)N1CC2(CC(n3nc(-c4cccc5c4cnn5C)c(-c4c(Cl)c(C)cc5[nH]ncc45)c3C)C2)C1 (single isomer, unassigned) [Example 29b]
103	C=CC(=O)N1CC2(CC(n3nc(-c4ccc5c(c4)ncn5C)c(-c4c(Cl)c(C)cc5[nH]ncc45)c3C)C2)C1 (single isomer, unassigned) [Example 30a]
> 50000	C=CC(=O)N1CC2(CC(n3nc(-c4ccc5c(c4)ncn5C)c(-c4c(Cl)c(C)cc5[nH]ncc45)c3C)C2)C1 (single isomer, unassigned) [Example 30b]
13900	C=CC(=O)N1CC2(CC(n3nc(-c4ccc5c(c4)N(C)CCO5)c(-c4c(Cl)c(C)cc5[nH]ncc45)c3C)C2)C1 (single isomer, unassigned) [Example 31a]
374	C=CC(=O)N1CC2(CC(n3nc(-c4ccc5c(c4)N(C)CCO5)c(-c4c(Cl)c(C)cc5[nH]ncc45)c3C)C2)C1 (single isomer, unassigned) [Example 31b]
871	C=CC(=O)N1CC2(CC(n3nc(-c4ccc5c(c4)N(C)CC(=O)O5)c(-c4c(Cl)c(C)cc5[nH]ncc45)c3C)C2)C1 (single isomer, unassigned) [Example 32a]
> 50000	C=CC(=O)N1CC2(CC(n3nc(-c4ccc5c(c4)N(C)CC(=O)O5)c(-c4c(Cl)c(C)cc5[nH]ncc45)c3C)C2)C1 (single isomer, unassigned) [Example 32b]
253	C=CC(=O)N1CC2(CC(n3nc(-c4ccn5ccnc5c4)c(-c4c(Cl)c(C)cc5[nH]ncc45)c3C)C2)C1 (single isomer, unassigned) [Example 33a]
> 50000	C=CC(=O)N1CC2(CC(n3nc(-c4ccn5ccnc5c4)c(-c4c(Cl)c(C)cc5[nH]ncc45)c3C)C2)C1 (single isomer, unassigned) [Example 33b]
827	C=CC(=O)N1CC2(CC(n3nc(-c4cnn5c4CCC5)c(-c4c(Cl)c(C)cc5[nH]ncc45)c3C)C2)C1 (single isomer, unassigned) [Example 34a]
> 50000	C=CC(=O)N1CC2(CC(n3nc(-c4cnn5c4CCC5)c(-c4c(Cl)c(C)cc5[nH]ncc45)c3C)C2)C1 (single isomer, unassigned) [Example 34b]

IC50 [nM]	SMILES
516	C=CC(=O)N1CC2(CC(n3nc(-c4cnn(S(=O)(=O)C5CC5)c4)c(-c4c(Cl)c(C)cc5[nH]ncc45)c3C)C2)C1 (single isomer, unassigned) [Example 36a]
> 50000	C=CC(=O)N1CC2(CC(n3nc(-c4cnn(S(=O)(=O)C5CC5)c4)c(-c4c(Cl)c(C)cc5[nH]ncc45)c3C)C2)C1 (single isomer, unassigned) [Example 36b]
112	C=CC(=O)N1CC2(CC(n3nc(-c4cnc5c(cnn5C)c4)c(-c4c(Cl)c(C)cc5[nH]ncc45)c3C)C2)C1 (single isomer, unassigned) [Example 37a]
> 50000	C=CC(=O)N1CC2(CC(n3nc(-c4cnc5c(cnn5C)c4)c(-c4c(Cl)c(C)cc5[nH]ncc45)c3C)C2)C1 (single isomer, unassigned) [Example 37b]
487	C=CC(=O)N1CC2(CC(n3nc(-c4cnc5c(c4)ncn5C)c(-c4c(Cl)c(C)cc5[nH]ncc45)c3C)C2)C1 (single isomer, unassigned) [Example 38a]
> 50000	C=CC(=O)N1CC2(CC(n3nc(-c4cnc5c(c4)ncn5C)c(-c4c(Cl)c(C)cc5[nH]ncc45)c3C)C2)C1 (single isomer, unassigned) [Example 38b]
32	C=CC(=O)N1CC2(CC(n3nc(-c4ccc(COCCOC)cc4)c(-c4c(Cl)c(C)cc5[nH]ncc45)c3C)C2)C1 (single isomer, unassigned) [Example 39a]
> 5000	C=CC(=O)N1CC2(CC(n3nc(-c4ccc(COCCOC)cc4)c(-c4c(Cl)c(C)cc5[nH]ncc45)c3C)C2)C1 (single isomer, unassigned) [Example 39b]
99	C=CC(=O)N1CC2(CC(n3nc(-c4ccc5nc(NC)ncc5c4)c(-c4c(Cl)c(C)cc5[nH]ncc45)c3C)C2)C1 (single isomer, unassigned) [Example 40a]
> 50000	C=CC(=O)N1CC2(CC(n3nc(-c4ccc5nc(NC)ncc5c4)c(-c4c(Cl)c(C)cc5[nH]ncc45)c3C)C2)C1 (single isomer, unassigned) [Example 40b]
11	C=CC(=O)N1CC2(CC(n3nc(-c4ccc5nn(CCOC)cc5c4)c(-c4c(Cl)c(C)cc5[nH]ncc45)c3C)C2)C1 (single isomer, unassigned) [Example 41a, 1-(6-{(4M)-4-(5-Chloro-6-methyl-1H-indazol-4-yl)-3-[2-(2-methoxyethyl)-2H-indazol-5-yl]-5-methyl-1H-pyrazol-1-yl}-2-azaspiro[3.3]heptan-2-yl)prop-2-en-1-one]
941	C=CC(=O)N1CC2(CC(n3nc(-c4ccc5nn(CCOC)cc5c4)c(-c4c(Cl)c(C)cc5[nH]ncc45)c3C)C2)C1 (single isomer, unassigned) [Example 41b]
12	C=CC(=O)N1CC2(CC(n3nc(-c4ccc5nn(CC(C)(C)O)cc5c4)c(-c4c(Cl)c(C)cc5[nH]ncc45)c3C)C2)C1 (single isomer, unassigned) [Example 42a, 1-(6-{(4M)-4-(5-Chloro-6-methyl-1H-indazol-4-yl)-3-[2-(2-hydroxy-2-methylpropyl)-2H-indazol-5-yl]-5-methyl-1H-pyrazol-1-yl}-2-azaspiro[3.3]heptan-2-yl)prop-2-en-1-one]
1200	C=CC(=O)N1CC2(CC(n3nc(-c4ccc5nn(CC(C)(C)O)cc5c4)c(-c4c(Cl)c(C)cc5[nH]ncc45)c3C)C2)C1 (single isomer, unassigned) [Example 42b]
10	C=CC(=O)N1CC2(CC(n3nc(-c4ccc5nn(CCOCCOC)cc5c4)c(-c4c(Cl)c(C)cc5[nH]ncc45)c3C)C2)C1 (single isomer, unassigned) [Example 43a, 1-{6-[(4M)-4-(5-Chloro-6-methyl-1H-indazol-4-yl)-3-{2-[2-(2-methoxyethoxy)ethyl]-2H-indazol-5-yl}-5-methyl-1H-pyrazol-1-yl]-2-azaspiro[3.3]heptan-2-yl}prop-2-en-1-one]
2900	C=CC(=O)N1CC2(CC(n3nc(-c4ccc5nn(CCOCCOC)cc5c4)c(-c4c(Cl)c(C)cc5[nH]ncc45)c3C)C2)C1 (single isomer, unassigned) [Example 43b]
